{"source": "paper PMC12801355", "about": "“Peptide Amphiphiles Hitchhike on Endogenous Biomolecules for Enhanced Cancer Imaging and Therapy” (Advanced Materials (Deerfield Beach, Fla.), 2025)", "key": {"[1]": {"assay": "Fluorescence polarization of PA nanostructures", "format": "physicochemical", "settings": "ICG‐conjugated SA‐E (10 mol%) mixed with MMAE‐conjugated SA‐E (90 mol%), 200 µM total; mean ± SEM", "method": "ICG (10 mol%) containing PA micelles were prepared by mixing ICG‐conjugated PAs with unconjugated or MMAE‐conjugated PAs to achieve a final concentration of 20 µM ICG‐conjugated PAs and 200 µM of total PAs. Aliquots of 100 µL were added to a 96‐well plate (3 wells for each PA). Fluorescence polarization measurements were performed using a microplate reader (TECAN Spark 20 M). The corrected parallel intensity (I par) and perpendicular intensity (Iper) were used to calculate the fluorescence anisotropy (r) using the following equation: r = […]."}, "4T1 tumor": {"system": "4T1 tumor", "assay": "Antitumor effect, 4T1 orthotopic mouse model", "method": "(§1) All experiments were approved by the Oregon Health and Science University (OHSU) Institutional Animal Care and Use Committee (IACUC) (TR01_IP00000674) and conformed to the guidelines set by the United States Animal Welfare Act and the National Institutes of Health. Mice were aged between 3 and 8 months and 20–30 g in weight and were housed in specific pathogen free cages. Human, mouse, or rat cells were injected into nude (The Jackson Laboratory, 002019), NSG mice (The Jackson Laboratory, 005557), Balb/c mice (The Jackson Laboratory, 000651), or C57Bl/6J mice (The Jackson Laboratory, 000664), as specified below. Cells were injected in 100 µL sterile DMEM at a concentration of 0.5–1×10^7 cells mL^−1, unless otherwise specified. For tumor accumulation and biodistribution studies, A375 cells were injected intradermally into the left ears of NSG mice (The Jackson Laboratory, 005557). MCF7 cells were injected into the mammary fat pad of NSG mice. HCT‐116, RG2, and HeLa (wild type or LDL‐R knockout) cells were subcutaneously injected into the left or both flanks of NSG mice. 4T1 cells were injected into the mammary fat pad of Balb/c mice. LLC1, MC38, and TRAMP‐C2 (wild type or SR‐B1 knockout) were injected into C57Bl/6J mice. Patient‐derived xenografts were generated by injecting the patient‐derived cancer cells subcutaneously into the left flank of NSG mice. ApoA1 and LDL‐R knockout mice were purchased from the Jackson Laboratory (002055 and 002207, respectively). MC38 cells were subcutaneously injected into both flanks of these mice. Apc^min and MMTV‐PyMT mice were purchased from the Jackson Laboratory (002020 and 002374). For antitumor activity studies, 4T1 cells were injected into the mammary fat pad of Balb/c mice. HCT‐116 and RG2 cells were subcutaneously injected into the left flanks of nude mice. For antitumor activity studies, HCT‐116 cells were injected in a 1:1 mixture of DMEM and Matrigel (Life Science 354263).\n(§2) Mice were injected with 4T1, RG2, or HCT‐116 cells as described above. Mice were then treated intravenously with the free MMAE (0.1 or 0.3 mg kg^−1), SA‐E‐MMAE (0.3, 0.6, 0.8, or 1 mg kg^−1) or PBS (10 mM, pH 7.4). 5 doses were given every 2–3 days over 11 days. […] Tumor size and mouse weight were monitored 2–3 times per week until a humane endpoint (tumor size ≈2 cm or >20% body weight loss) or the study endpoint (18, 25, or 120 days for 4T1, RG2, and HCT‐116 studies, respectively). Tumor size was measured in two directions with a caliper rounded to the nearest tenth of a mm. Volume was calculated as a basic sphere of 4/3πr^3."}, "RG2 xenografts": {"system": "RG2 xenografts", "assay": "Antitumor effect, RG2 xenografts in nude mice", "format": "in vivo, mouse", "settings": "1 mg kg^−1 IV, 5 doses", "method": "All experiments were approved by the Oregon Health and Science University (OHSU) Institutional Animal Care and Use Committee (IACUC) (TR01_IP00000674) and conformed to the guidelines set by the United States Animal Welfare Act and the National Institutes of Health. Mice were aged between 3 and 8 months and 20–30 g in weight and were housed in specific pathogen free cages. Human, mouse, or rat cells were injected into nude (The Jackson Laboratory, 002019), NSG mice (The Jackson Laboratory, 005557), Balb/c mice (The Jackson Laboratory, 000651), or C57Bl/6J mice (The Jackson Laboratory, 000664), as specified below. Cells were injected in 100 µL sterile DMEM at a concentration of 0.5–1×10^7 cells mL^−1, unless otherwise specified. For tumor accumulation and biodistribution studies, A375 cells were injected intradermally into the left ears of NSG mice (The Jackson Laboratory, 005557). MCF7 cells were injected into the mammary fat pad of NSG mice. […]\nas §2, with “above.” for “above. Mice were then treated intravenously with the free MMAE (0.1 or 0.3 mg kg^−1), SA‐E‐MMAE (0.3, 0.6, 0.8, or 1 mg kg^−1) or PBS (10 mM, pH 7.4). 5 doses were given every 2–3 days over 11 days.”"}, "HCT‐116 tumor": {"system": "HCT‐116 tumor", "method": "as §1, §2"}, "[2]": {"system": "LPs (HDL, LDL, VLDL) and albumin in pooled human plasma", "assay": "FPLC of PAs in 10% human plasma", "settings": "MMAE conjugated SA‐E, 250 µM, detection at 250 nm", "protocol": "FPLC experiments were performed using SA‐E, SA‐K, or No‐SA conjugated with ICG or SA‐E conjugated with MMAE at a final concentration of 250 µM in filtered PBS (10 mM, pH 7.4) with or without human plasma or purified LPs or albumin. For analysis of SA‐E interactions with purified LPs, VLDL, LDL, HDL, and human serum albumin were diluted in filtered PBS to approximate concentrations found in 10% human plasma: 0.0025, 0.13, 0.05, and 5mg mL^−1, respectively. SA‐E was incubated with the purified LP/protein mixture for 30 min at 37 °C before injection. For analysis of plasma interactions, PAs or No‐SA were incubated in PBS containing 10% pooled human plasma for 30 min at 37 °C before injection. The total volume injected for all samples was 400 µL. All data was collected on an ÄKTA pure chromatography system using the following running conditions: size exclusion chromatography on a Superose 6 Increase 10/300 GL column with a column volume (CV) of 30 mL, pre‐column pressure limit of 5 MPa, delta‐column pressure limit of 2.6 MPa, flow rate of 0.75 mL min^−1, in 100% PBS. The sample running method included first an equilibration step before injection of the sample with 100% PBS for 0.5 CV, followed by sample application via 1 mL capillary loop in 100% PBS, and finished with a linear elution consisting of 2 CV collected in 1 mL fractions. The UV‐Vis detector wavelengths were 250, 280, and 700 nm to detect MMAE, all proteins/LPs, and ICG, respectively."}}, "note": "Like-named read-outs stand apart in the source and are kept apart here. *1 amine or outer side, *2 acyl side, *3 side chain or, on linkers, in order; H or OH if unused. Where a SMILES comes first, the peptide text is derived from it. Bridges are numbered along the chain shown (N, C = ends). Roman numbers before positions name the chains, in order. [ ]: non-standard residue; d: D form. The star is where a group is joined. Hexanoyl(6-succinimido-3yl) = O=C1CC([*:1])C(=O)N1CCCCCC(=O)[*:2]; Dolaproine = CO[C@@H]([C@@H]1CCCN1)[C@@H](C)C(=O)O; Dil = CC[C@H](C)[C@H](NC)[C@@H](CC(=O)O)OC; PABC = O=C(OCc1ccc(N[*:1])cc1)[*:2]; Palmitoyl = CCCCCCCCCCCCCCCC(=O)*; X1 = C[C@@H](N*)[C@@H](O)c1ccccc1; Cit = NC(=O)NCCC[C@H](N)C(=O)O; NMeV = CN[C@H](C(=O)O)C(C)C", "data": [{"smiles": "CCCCCCCCCCCCCCCC(=O)NCC(=O)NCC(=O)NCC(=O)N[C@@H](Cc1c[nH]cn1)C(=O)N[C@@H](C)C(=O)N[C@@H](C)C(=O)N[C@@H](CC(N)=O)C(=O)NCC(=O)N[C@@H](CCC(=O)O)C(=O)N[C@@H](CCC(=O)O)C(=O)N[C@@H](CSC1CC(=O)N(CCCCCC(=O)N[C@H](C(=O)N[C@@H](CCCNC(N)=O)C(=O)Nc2ccc(COC(=O)N(C)[C@H](C(=O)N[C@H](C(=O)N(C)[C@@H]([C@@H](C)CC)[C@@H](CC(=O)N3CCC[C@H]3[C@H](OC)[C@@H](C)C(=O)N[C@H](C)[C@@H](O)c3ccccc3)OC)C(C)C)C(C)C)cc2)C(C)C)C1=O)C(=O)N[C@@H](CCC(=O)O)C(=O)O", "note": "(some centres unmarked) [SA‐E‐MMAE] (I: Palmitoyl-GGGHAANGEECE-OH / II: V[Cit][PABC][NMeV]V[Dil][Dolaproine]-X1; linker I:11-II:N via Hexanoyl(6-succinimido-3yl); C-terminus assumed)", "values": [{"measurement": "fluorescence anisotropy of ICG in micelles", "setting": "[1]", "result": "0.188 ± 0.002"}, {"measurement": "tumor growth reduction", "setting": "4T1 tumor; 0.6 mg kg^−1 (based on MMAE) IV, 5 doses over 11 days, n = 5, versus free MMAE and PBS", "result": "≈ 75%"}, {"measurement": "body weight", "setting": "4T1 tumor; 0.6 mg kg^−1 IV, 5 doses", "result": "no significant weight loss"}, {"measurement": "reduction in the tumor volume", "setting": "RG2 xenografts; n = 4, compared to the control", "result": "around 80%"}, {"measurement": "body weight", "setting": "RG2 xenografts; at the beginning of the therapy, overall tolerated", "result": "slight weight loss"}, {"measurement": "overall survival", "setting": "HCT‐116 tumor; 0.8 mg kg^−1 IV, 5 doses, n = 4, log‐rank", "result": "significantly improved the overall survival"}, {"measurement": "effect on tumor size", "setting": "HCT‐116 tumor; 0.8 mg kg^−1 of MMAE IV, days 11, 14, 17, 19, 21, all mice, n = 4", "result": "reduction in the tumor size"}, {"measurement": "average tumor volume", "setting": "HCT‐116 tumor; day 21, end of treatment", "result": "≈ 150 mm^3"}, {"measurement": "average tumor volume", "setting": "HCT‐116 tumor; day 33", "result": "≈ 40 mm^3"}, {"measurement": "tumor‐free mice", "setting": "HCT‐116 tumor; day 120", "result": "one mouse remained tumor‐free on day 120"}, {"measurement": "plasma component bound (FPLC)", "setting": "[2]", "result": "assembled with HDL"}]}]}
